Experimental data published in BindingDB's records for doi:10.7270/Q2SX6BN0 (The Scripps Research Institute Molecular Screening Center, 2010).

Target: T1, NADPH oxidase 1 (Homo sapiens, UniProt Q9Y5S8)
T1 sequence (Q9Y5S8 whole entry): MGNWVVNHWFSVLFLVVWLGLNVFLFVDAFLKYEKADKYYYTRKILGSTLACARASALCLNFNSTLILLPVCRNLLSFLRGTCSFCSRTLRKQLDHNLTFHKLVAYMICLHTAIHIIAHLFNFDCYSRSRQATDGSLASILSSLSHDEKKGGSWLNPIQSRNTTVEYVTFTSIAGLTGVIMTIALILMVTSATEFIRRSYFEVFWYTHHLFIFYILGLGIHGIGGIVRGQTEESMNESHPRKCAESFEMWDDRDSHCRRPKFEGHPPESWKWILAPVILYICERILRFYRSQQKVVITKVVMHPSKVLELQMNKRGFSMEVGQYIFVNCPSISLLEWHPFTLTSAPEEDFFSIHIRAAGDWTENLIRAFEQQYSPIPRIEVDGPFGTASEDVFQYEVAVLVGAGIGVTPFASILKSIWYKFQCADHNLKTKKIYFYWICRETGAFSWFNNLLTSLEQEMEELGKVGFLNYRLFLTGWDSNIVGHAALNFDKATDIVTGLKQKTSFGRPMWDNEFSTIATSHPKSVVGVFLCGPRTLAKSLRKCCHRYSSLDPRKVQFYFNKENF
Experiment: ROS production inhibition in HEK293 cells, late-stage follow-up, counter-screen for NOX1 inhibitor project, cell-based, IC50, set 2 (AID 435002)

Row | IC50 [µM] | Compound
1 | 4 | CN(C)c1ccc(CN=Nc2c(Cl)cncc2Cl)cc1
2 | 10 | Oc1c(Br)cc(CN=Nc2c(Cl)cncc2Cl)cc1Br [4-[[2-[3,5-bis(chloranyl)pyridin-4-yl]hydrazinyl]methylidene]-2,6-bis(bromanyl)cyclohexa-2,5-dien-1-one]
